Source: ChEMBL document CHEMBL1131832, “Synthesis and pharmacological activity of diarylindole derivatives. Cytotoxic agents based on combretastatins” (Bioorg Med Chem Lett, 1999)

Experiments:
HT-29 = test: Antineoplastic activity against HT-29 (human colon adenocarcinoma) cell line.; type: functional, cell-based
SK-MEL-28 = test: Antineoplastic activity against SK-MEL-28 (human melanoma) cell line.; type: functional, cell-based
P388 = test: Antineoplastic activity against P-388 (murine lymphoid neoplasm) cell line.; type: functional, cell-based; conditions: Mus musculus
A549 = test: Antineoplastic activity against A-549 (human lung carcinoma) cell line.; type: functional, cell-based
COLO 205 = test: Compound was evaluated for cytostatic activity against COLO 205 colon cancer cell line; type: functional; conditions: Homo sapiens
NCI-H522 = test: Compound was evaluated for cytostatic activity against NCI-H522 non-small cell lung cancer cell line; type: functional; conditions: Homo sapiens
OVCAR-3 = test: Compound was evaluated for cytostatic activity against OVCAR-3 ovarian cancer cell line; type: functional; conditions: Homo sapiens
RPMI-8226 = test: Compound was evaluated for cytostatic activity against the RPMI-8226 leukemia cell line; type: functional; conditions: Homo sapiens
SF-295 = test: Compound was evaluated for cytostatic activity against SF-295 CNS cancer cell line; type: functional; conditions: Homo sapiens
SF-539 = test: Compound was evaluated for cytostatic activity against SF-539 CNS cancer cell line; type: functional; conditions: Homo sapiens
SK-MEL-5 = test: Compound was evaluated for cytostatic activity against SK-MEL-5 melanoma cell line; type: functional; conditions: Homo sapiens
SNB-19 = test: Compound was evaluated for cytostatic activity against SNB-19 CNS cancer cell line; type: functional; conditions: Homo sapiens
HCT-116 = test: Compound was evaluated for cytostatic activity against […] colon cancer cell line; type: functional; conditions: Homo sapiens
HL-60 = test: Compound was evaluated for cytostatic activity against the HL-60(TB) leukemia cell line; type: functional; conditions: Homo sapiens
[1] = read-out: Log LC50 (the source's name) (converted)

| Compound | IC50 (HT-29) | IC50 (SK-MEL-28) | IC50 (P388) | IC50 (A549) | further results |
| --- | --- | --- | --- | --- | --- |
| COc1cc(CC(=O)c2ccoc2)cc(OC)c1OC | 7.24 µM | 7.24 µM | 7.24 µM | 7.24 µM | – |
| COc1ccc2[nH]c(-c3ccc4c(c3)OCO4)c(-c3cc(OC)c(OC)c(OC)c3)c2c1 | 6.31 µM | 6.31 µM | 2.29 µM | 6.31 µM | – |
| COc1cc(CCc2ccc3c(c2)OCO3)cc(OC)c1OC | – | 6.31 µM | – | – | – |
| COc1ccc2[nH]c(-c3ccoc3)c(-c3cc(OC)c(OC)c(OC)c3)c2c1 | 3.24 µM | 3.24 µM | 3.24 µM | 3.24 µM | – |
| COc1ccc2[nH]c(-c3ccc(C)o3)c(-c3cc(OC)c(OC)c(OC)c3)c2c1 | 6.46 µM | 5.13 µM | 5.13 µM | 5.13 µM | – |
| COc1cc(CC(O)c2ccoc2)cc(OC)c1OC (stereo not given) | 72.4 µM | 72.4 µM | 36.3 µM | 72.4 µM | – |
| COc1ccc2[nH]c(-c3ccco3)c(-c3cc(OC)c(OC)c(OC)c3)c2c1 | 1.32 µM | – | 0.708 µM | 1.32 µM | GI50 (COLO 205): 0.186 µM; CC50 (COLO 205; [1]): 0.676 µM; GI50 (NCI-H522): 0.0759 µM; CC50 (NCI-H522; [1]): 3.39 µM; GI50 (OVCAR-3): 0.17 µM; CC50 (OVCAR-3; [1]): 7.24 µM; GI50 (RPMI-8226): 0.0912 µM; CC50 (RPMI-8226; [1]): 75.9 µM; GI50 (SF-295): 0.138 µM; CC50 (SF-295; [1]): 23.4 µM; GI50 (SF-539): 0.117 µM; CC50 (SF-539; [1]): 0.933 µM; GI50 (SK-MEL-5): 0.245 µM; CC50 (SK-MEL-5; [1]): 28.8 µM; GI50 (SNB-19): 0.0229 µM; CC50 (SNB-19; [1]): 0.977 µM; GI50 (HCT-116): 0.138 µM; CC50 (HCT-116; [1]): 2.51 µM; GI50 (HL-60): 0.0513 µM; CC50 (HL-60; [1]): > 100 µM |
| COc1cc(CC(O)c2ccc3ccccc3c2)cc(OC)c1OC (stereo not given) | 2.95 µM | 2.95 µM | 2.95 µM | 2.95 µM | – |
| COc1cc(CC(=O)c2ccco2)cc(OC)c1OC | > 100 µM | > 100 µM | > 100 µM | > 100 µM | – |
| COc1cc(CC(=O)c2ccc(C)o2)cc(OC)c1OC | 17.4 µM | 8.71 µM | 8.71 µM | 17.4 µM | – |
| COc1cc(CC(O)c2ccc3c(c2)OCO3)cc(OC)c1OC (stereo not given) | > 100 µM | > 100 µM | > 100 µM | > 100 µM | – |
| COc1cc(CCc2ccco2)cc(OC)c1OC | 19.1 µM | 19.1 µM | 19.1 µM | 19.1 µM | – |
| COc1cc(CC(O)c2ccco2)cc(OC)c1OC (stereo not given) | 36.3 µM | 36.3 µM | 18.2 µM | 36.3 µM | – |
| COc1cc(CCc2ccoc2)cc(OC)c1OC | > 100 µM | > 100 µM | > 100 µM | > 100 µM | – |
| COc1cc(CCc2ccc(C)o2)cc(OC)c1OC | 7.24 µM | 7.24 µM | 7.24 µM | 7.24 µM | – |
| COc1cc(CC(=O)c2ccc3ccccc3c2)cc(OC)c1OC | 30.2 µM | 15.1 µM | 15.1 µM | 15.1 µM | – |
| COc1ccc2[nH]c(-c3ccc4ccccc4c3)c(-c3cc(OC)c(OC)c(OC)c3)c2c1 | 2.24 µM | 1.12 µM | 1.12 µM | 1.12 µM | – |
| COc1cc(CCc2ccc3ccccc3c2)cc(OC)c1OC | – | 0.302 µM | – | – | – |
